According to US20160361257A1, “COMPOSITION FOR INCREASING TESTOSTERONE LEVELS AND ENHANCING LIBIDO” (priority 2015, published 2016):

Columns and labels:
[1] = humans; prior art U.S. Pat. No. 5,880,117; cited from earlier work
[2] = half-life when delivered sublingually or transmucosally; conditions: in vivo
Procedure: 7-methoxyflavone is an aromatase inhibitor. Aromatase inhibitors work by inhibiting the action of the enzyme aromatase, which converts androgens into estrogens by a process called aromatization. 7-methoxyflavone is a compound having poor bioavailability of about 5% when ingested. According to an embodiment of the present invention, from about 5 mg to 50 mg, and preferably from about 20 mg to 30 mg of 7-methoxyflavone may be included in the formulations and dosage forms of the present invention, when delivered sublingually or transmucosally. […] According to an embodiment, the 7-methoxyflavone may be from a plant extract. 7-methoxyflavone has been found in Meliaceae and Rutaceae plants. According to an embodiment, the 7-methoxyflavone may therefore be from an extract containing at least 90% 7-methoxyflavone, standardized. Preferably, extract contains at least […] 7-methoxyflavone, standardized.
According to an embodiment of the present invention, from about 5 mg to 50 mg, and preferably from about 20 mg to 30 mg of 7,8-benzoflavone may be included in the formulations and dosage forms of the present invention, when delivered sublingually or transmucosally. According to an embodiment, the half-life of 7,8-benzoflavone is about 1-2h when delivered sublingually or transmucosally.

Row | SMILES | period over which concentration declines after the peak [1] [h] | time to peak concentration after administration [1] [min] | half-life [2] [h]
1 | C[C@]12CC[C@H]3[C@@H](CCC4=C[C@@H](O)CC[C@@]43C)[C@@H]1CC[C@@H]2O [4-androstene-3β, 17β-diol] | 3 to 4 | ≤ 90 | 
2 | COc1ccc2c(=O)cc(-c3ccccc3)oc2c1 [7-methoxyflavone] |  |  | 8 to 12
3 | O=c1cc(-c2ccccc2)oc2c1ccc1ccccc12 [7,8-benzoflavone, 2-phenyl-benzo(h)chromen-4-one] |  |  | 1 to 2
